# Assays:
# [1] = test system: LNCaP; experiment: Induction of cell cycle arrest in human LNCAP cells assessed as accumulation at greater G2 phase at 2.5 uM after 24 hrs by propidium iodide staining based FACS analysis (reference value: 0.20%); assay type: functional
# [2] = test system: LNCaP; experiment: Induction of cell cycle arrest in human LNCAP cells assessed as accumulation at lesser G1 phase at 2.5 uM after 24 hrs by propidium iodide staining based FACS analysis (reference value: 1.59%); assay type: functional
# [3] = test system: LNCaP; experiment: Induction of cell cycle arrest in human LNCAP cells assessed as accumulation at S phase at 2.5 uM after 24 hrs by propidium iodide staining based FACS analysis (reference value: […]); assay type: functional
# [4] = test system: LNCaP; experiment: Induction of cell cycle arrest in human LNCAP cells assessed as accumulation at G1 phase at 2.5 uM after 24 hrs by propidium iodide staining based FACS analysis (reference value: 69.5%); assay type: functional
# [5] = Cytotoxicity against human HeLa cells assessed as cell growth inhibition after 72 hrs by MTT assay
# [6] = test system: LNCaP; experiment: Induction of cell cycle arrest in human LNCAP cells assessed as accumulation at G2 phase at 2.5 uM after 24 hrs by propidium iodide staining based FACS analysis (reference value: 1.08%); assay type: functional
# [7] = Cytotoxicity against African green monkey Vero cells assessed as cell growth inhibition after 72 hrs by MTT assay; assay type: toxicity, cell-based; settings: African green monkey (Chlorocebus sabaeus)
# [8] = target: T1, Protein deacetylase HDAC6 (Homo sapiens, UniProt Q9UBN7); experiment: Inhibition of HDAC6 (unknown origin) after 20 hrs by SAMDI mass spectroscopic analysis
# T1 sequence (Q9UBN7 whole entry): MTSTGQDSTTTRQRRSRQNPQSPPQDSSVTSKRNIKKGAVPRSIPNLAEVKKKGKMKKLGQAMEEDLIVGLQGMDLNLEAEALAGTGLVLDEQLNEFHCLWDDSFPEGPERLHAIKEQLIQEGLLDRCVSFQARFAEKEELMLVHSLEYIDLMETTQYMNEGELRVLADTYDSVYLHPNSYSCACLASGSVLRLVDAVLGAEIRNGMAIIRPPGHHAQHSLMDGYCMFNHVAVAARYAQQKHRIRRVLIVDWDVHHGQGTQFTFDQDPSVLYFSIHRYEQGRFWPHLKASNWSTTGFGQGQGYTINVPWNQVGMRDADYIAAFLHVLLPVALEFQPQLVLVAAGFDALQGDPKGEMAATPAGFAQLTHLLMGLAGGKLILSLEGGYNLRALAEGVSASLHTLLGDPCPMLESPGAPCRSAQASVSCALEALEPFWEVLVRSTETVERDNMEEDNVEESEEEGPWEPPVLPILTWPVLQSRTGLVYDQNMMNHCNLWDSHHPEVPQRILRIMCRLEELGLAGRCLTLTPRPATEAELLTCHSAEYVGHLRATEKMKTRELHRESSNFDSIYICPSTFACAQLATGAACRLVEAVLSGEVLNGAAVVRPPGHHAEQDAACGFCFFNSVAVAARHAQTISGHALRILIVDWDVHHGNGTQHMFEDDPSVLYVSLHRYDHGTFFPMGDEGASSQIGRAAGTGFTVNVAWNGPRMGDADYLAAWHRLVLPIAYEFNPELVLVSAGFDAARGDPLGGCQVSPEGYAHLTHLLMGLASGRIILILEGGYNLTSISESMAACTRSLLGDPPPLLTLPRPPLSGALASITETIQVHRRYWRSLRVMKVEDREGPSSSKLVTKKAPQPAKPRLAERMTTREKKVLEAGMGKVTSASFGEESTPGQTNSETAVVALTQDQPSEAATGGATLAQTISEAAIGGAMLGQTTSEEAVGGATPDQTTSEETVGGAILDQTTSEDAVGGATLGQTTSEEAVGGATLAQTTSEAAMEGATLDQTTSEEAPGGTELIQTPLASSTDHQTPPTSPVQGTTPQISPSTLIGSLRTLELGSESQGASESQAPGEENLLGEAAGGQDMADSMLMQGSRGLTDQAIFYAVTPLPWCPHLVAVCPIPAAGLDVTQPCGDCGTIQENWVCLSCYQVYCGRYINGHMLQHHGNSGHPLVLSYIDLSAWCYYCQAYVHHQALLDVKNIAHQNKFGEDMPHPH
# [9] = Cytotoxicity against human HCT116 cells assessed as cell growth inhibition after 72 hrs by MTT assay; assay type: functional, cell-based; settings: HCT-116, 72 h
# [10] = target: Histone deacetylase 1 (Homo sapiens, UniProt Q13547); experiment: Inhibition of HDAC1 (unknown origin) after 24 hrs by SAMDI mass spectroscopic analysis
# Sequence of Histone deacetylase 1 (Q13547 whole entry): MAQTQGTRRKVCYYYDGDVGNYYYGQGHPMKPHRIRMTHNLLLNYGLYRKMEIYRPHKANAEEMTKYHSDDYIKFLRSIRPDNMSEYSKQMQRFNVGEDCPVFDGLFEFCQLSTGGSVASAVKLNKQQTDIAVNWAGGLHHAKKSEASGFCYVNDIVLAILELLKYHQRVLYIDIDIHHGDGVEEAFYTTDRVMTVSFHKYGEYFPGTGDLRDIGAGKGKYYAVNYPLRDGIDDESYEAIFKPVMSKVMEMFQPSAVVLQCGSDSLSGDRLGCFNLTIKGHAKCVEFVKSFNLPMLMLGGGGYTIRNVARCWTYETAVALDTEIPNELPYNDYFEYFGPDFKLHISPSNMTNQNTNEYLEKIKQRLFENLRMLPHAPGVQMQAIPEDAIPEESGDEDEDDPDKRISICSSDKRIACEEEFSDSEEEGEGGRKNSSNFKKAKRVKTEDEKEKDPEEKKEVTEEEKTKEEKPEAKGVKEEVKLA
# [11] = Cytotoxicity against human LNCAP cells assessed as cell growth inhibition after 72 hrs by MTT assay; assay type: functional, cell-based
# [12] = target: T2, Histone deacetylase 8 (Homo sapiens, UniProt Q9BY41); experiment: Inhibition of HDAC8 (unknown origin) after 2.5 hrs by SAMDI mass spectroscopic analysis
# T2 sequence (Q9BY41 whole entry): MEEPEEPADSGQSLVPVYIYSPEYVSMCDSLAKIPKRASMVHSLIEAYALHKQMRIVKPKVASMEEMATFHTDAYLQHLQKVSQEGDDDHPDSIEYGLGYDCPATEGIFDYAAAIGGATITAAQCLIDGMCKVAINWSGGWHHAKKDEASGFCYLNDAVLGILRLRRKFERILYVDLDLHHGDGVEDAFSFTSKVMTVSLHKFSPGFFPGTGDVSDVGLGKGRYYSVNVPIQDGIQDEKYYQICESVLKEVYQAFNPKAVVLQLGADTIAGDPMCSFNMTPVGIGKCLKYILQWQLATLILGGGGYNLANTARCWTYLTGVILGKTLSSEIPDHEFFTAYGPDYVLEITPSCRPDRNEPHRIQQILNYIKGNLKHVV
# [13] = target: T3, Prostaglandin G/H synthase 2 (Homo sapiens) (UniProt P35354); experiment: Inhibition of recombinant human COX2 at 10 uM using arachidonic acid as substrate preincubated for 15 mins followed by substrate addition for 2 mins by Cayman based fluorescence assay
# T3 sequence (whole entry): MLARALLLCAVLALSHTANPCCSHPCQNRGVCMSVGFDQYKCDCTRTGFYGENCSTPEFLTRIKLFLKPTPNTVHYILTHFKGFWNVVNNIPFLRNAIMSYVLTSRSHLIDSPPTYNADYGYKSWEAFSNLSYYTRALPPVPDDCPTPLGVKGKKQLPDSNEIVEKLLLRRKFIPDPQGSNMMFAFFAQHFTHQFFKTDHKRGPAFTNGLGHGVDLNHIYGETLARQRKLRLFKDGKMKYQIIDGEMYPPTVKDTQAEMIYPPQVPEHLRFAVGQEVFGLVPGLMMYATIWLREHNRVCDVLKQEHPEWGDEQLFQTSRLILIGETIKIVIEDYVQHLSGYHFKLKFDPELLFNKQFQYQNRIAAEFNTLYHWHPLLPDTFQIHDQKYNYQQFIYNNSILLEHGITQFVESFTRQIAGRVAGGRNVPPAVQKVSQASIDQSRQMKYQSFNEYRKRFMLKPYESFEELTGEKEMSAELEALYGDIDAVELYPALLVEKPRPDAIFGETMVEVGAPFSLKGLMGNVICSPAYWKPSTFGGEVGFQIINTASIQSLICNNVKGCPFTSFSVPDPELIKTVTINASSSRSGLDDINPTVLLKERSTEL
# [14] = target: T4, Histone deacetylase 2 (Homo sapiens, UniProt Q92769); experiment: Inhibition of HDAC2 (unknown origin) after 24 hrs by SAMDI mass spectroscopic analysis
# T4 sequence (Q92769 whole entry): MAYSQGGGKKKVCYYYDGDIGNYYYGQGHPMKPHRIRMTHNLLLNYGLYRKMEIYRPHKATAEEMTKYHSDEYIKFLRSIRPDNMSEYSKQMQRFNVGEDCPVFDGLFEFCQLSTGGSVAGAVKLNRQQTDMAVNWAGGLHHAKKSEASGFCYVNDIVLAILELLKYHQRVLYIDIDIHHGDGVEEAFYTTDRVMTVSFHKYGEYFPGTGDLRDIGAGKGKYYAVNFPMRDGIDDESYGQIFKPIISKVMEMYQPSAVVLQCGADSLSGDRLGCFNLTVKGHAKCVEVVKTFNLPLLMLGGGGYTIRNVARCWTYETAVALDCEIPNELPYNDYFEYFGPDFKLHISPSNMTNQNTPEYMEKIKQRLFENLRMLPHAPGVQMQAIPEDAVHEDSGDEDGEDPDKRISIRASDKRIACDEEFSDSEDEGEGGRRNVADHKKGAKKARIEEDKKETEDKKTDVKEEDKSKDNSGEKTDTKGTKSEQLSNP
# [15] = target: Histone deacetylase 3 (Homo sapiens, UniProt O15379); experiment: Inhibition of HDAC3 (unknown origin) after 5 hrs by SAMDI mass spectroscopic analysis
# Sequence of Histone deacetylase 3 (O15379 whole entry): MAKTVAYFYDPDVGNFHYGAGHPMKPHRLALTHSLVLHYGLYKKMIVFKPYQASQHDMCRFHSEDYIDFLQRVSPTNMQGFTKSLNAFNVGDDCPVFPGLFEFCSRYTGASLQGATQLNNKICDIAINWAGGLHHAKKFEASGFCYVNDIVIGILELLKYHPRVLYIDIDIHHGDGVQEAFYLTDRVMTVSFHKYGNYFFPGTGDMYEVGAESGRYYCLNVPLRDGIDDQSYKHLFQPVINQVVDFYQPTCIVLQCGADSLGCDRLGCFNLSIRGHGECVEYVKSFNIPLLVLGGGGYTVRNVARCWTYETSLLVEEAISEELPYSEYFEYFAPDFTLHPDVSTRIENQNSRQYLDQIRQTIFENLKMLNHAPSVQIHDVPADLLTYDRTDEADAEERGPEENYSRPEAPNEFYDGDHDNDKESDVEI
# [16] = Cytotoxicity against human MCF7 cells assessed as cell growth inhibition after 72 hrs by MTT assay; assay type: functional, cell-based; settings: MCF7, 72 h
# [17] = target: T5, Prostaglandin G/H synthase 1 (Ovis aries) (UniProt P05979); experiment: Inhibition of sheep COX1 at 10 uM using arachidonic acid as substrate preincubated for 15 mins followed by substrate addition for 2 mins by Cayman based fluorescence assay
# T5 sequence (whole entry): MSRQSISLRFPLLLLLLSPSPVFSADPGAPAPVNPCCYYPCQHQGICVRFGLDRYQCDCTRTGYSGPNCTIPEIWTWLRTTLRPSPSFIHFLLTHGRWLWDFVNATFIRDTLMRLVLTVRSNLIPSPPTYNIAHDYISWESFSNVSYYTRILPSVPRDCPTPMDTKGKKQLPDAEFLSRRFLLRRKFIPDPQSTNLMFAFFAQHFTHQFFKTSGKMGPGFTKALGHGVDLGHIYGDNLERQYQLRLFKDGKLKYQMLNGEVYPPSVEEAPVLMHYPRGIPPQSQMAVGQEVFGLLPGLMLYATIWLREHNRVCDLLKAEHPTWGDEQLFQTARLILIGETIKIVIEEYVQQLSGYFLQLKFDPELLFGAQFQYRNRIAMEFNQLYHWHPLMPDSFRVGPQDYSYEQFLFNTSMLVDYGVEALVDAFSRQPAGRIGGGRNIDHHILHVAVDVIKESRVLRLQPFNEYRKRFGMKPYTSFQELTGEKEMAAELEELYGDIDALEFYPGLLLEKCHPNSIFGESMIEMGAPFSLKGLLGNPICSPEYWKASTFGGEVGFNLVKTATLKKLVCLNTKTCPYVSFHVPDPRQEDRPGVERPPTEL
# [18] = Cytotoxicity against human DU145 cells assessed as cell growth inhibition after 72 hrs by MTT assay; assay type: functional, cell-based; settings: DU-145, 72 h
# [19] = Cytotoxicity against human A549 cells assessed as cell growth inhibition after 72 hrs by MTT assay; assay type: functional, cell-based; settings: A549, 72 h
# [20] = target: T4, Histone deacetylase 2; experiment: Inhibition of HDAC2 (unknown origin) at 10 uM after 24 hrs by SAMDI mass spectroscopic analysis
# [21] = target: T6, Prostaglandin G/H synthase 2 (Homo sapiens, UniProt P35354); experiment: Inhibition of recombinant human COX2 using arachidonic acid as substrate preincubated for 15 mins followed by substrate addition for 2 mins by Cayman based fluorescence assay
# T6 sequence (P35354 whole entry): T3 sequence (whole entry)
# [22] = target: T7, Prostaglandin G/H synthase 1 (Ovis aries, UniProt P05979); experiment: Inhibition of sheep COX1 using arachidonic acid as substrate preincubated for 15 mins followed by substrate addition for 2 mins by Cayman based fluorescence assay
# T7 sequence (P05979 whole entry): T5 sequence (whole entry)
IC50 [8] [µM],IC50 [10] [µM],IC50 [12] [µM],inhibition [13] [%],IC50 [14] [µM],IC50 [15] [µM],inhibition [17] [%],SMILES,IC50 at 72 h [7] [µM],IC50 [9] [µM],IC50 [11] [µM],IC50 [16] [µM],IC50 [19] [µM],other results
–,–,–,–,–,–,–,O=C(CCCCCCC(=O)Nc1ccccc1)NO [VORINOSTAT],1.03,–,–,–,–,Activity [1]: 0.31%; Activity [2]: -4.88%; Activity [3]: 18.4%; Activity [4]: 85.6%; IC50 [5]: 2.12 µM; Activity [6]: 0.69%
6.83,0.778,0.672,11.5,1.36,0.224,–,COC(=O)Cc1c(C)n(Cc2ccc(-c3cn(CCCCCC(=O)NO)nn3)cc2)c2ccc(OC)cc12,37.8,9.31,> 20,14.2,–,–
0.061,0.968,0.989,95.6,0.929,0.256,26.1,Cc1ccc(-c2cc(C(F)(F)F)nn2-c2ccc(S(=O)(=O)NCCCCCCCC(=O)NO)cc2)cc1,6.61,–,2.11,4.58,8.15,IC50 [18]: 10.1 µM
0.092,0.4,0.544,19.1,0.232,0.191,–,Cc1ccc(-c2cc(C(=O)NCCCCCC(=O)NO)nn2-c2ccc(S(N)(=O)=O)cc2)cc1,> 100,–,–,> 100,> 100,–
0.076,1.87,0.226,97.7,2.06,1.02,16.2,Cc1ccc(-c2cc(C(F)(F)F)nn2-c2ccc(S(=O)(=O)NCCCCCC(=O)NO)cc2)cc1,6.83,8.74,8.88,7.77,10.4,–
0.05,1.76,0.707,96.2,–,0.283,42.8,COc1ccc2c(c1)c(CC(=O)NCCCCCCCC(=O)NO)c(C)n2C(=O)c1ccc(Cl)cc1,34.7,24.9,6.46,25.1,–,inhibition [20]: 43%; IC50 [18]: > 20 µM
0.183,0.06,0.697,66.9,0.032,0.033,–,Cc1ccc(-c2cc(C(=O)NCCCCCCCC(=O)NO)nn2-c2ccc(S(N)(=O)=O)cc2)cc1,12.1,7.12,> 20,59.5,34.1,–
0.005,0.251,0.394,78.2,0.209,0.181,7.08,COC(=O)Cc1c(C)n(Cc2ccc(-c3cn(CCCCCCCC(=O)NO)nn3)cc2)c2ccc(OC)cc12,5.73,1.28,1.53,–,–,IC50 [21]: 4.58 µM; IC50 [22]: 12 µM

SMILES,IC50 [8] [µM],IC50 [10] [µM],IC50 [12] [µM],inhibition [13] [%],IC50 [14] [µM],IC50 [15] [µM],inhibition [17] [%],IC50 at 72 h [7] [µM],IC50 [9] [µM],IC50 [11] [µM],IC50 [16] [µM],IC50 [19] [µM],other results
COc1ccc2c(c1)c(CC(=O)NCCCCCC(=O)NO)c(C)n2C(=O)c1ccc(Cl)cc1,0.049,1.81,0.345,95.1,–,0.722,40.2,–,16.1,> 20,> 100,31.9,inhibition [20]: 41%
Cc1ccc(-c2cc(C(=O)NCCCCCCC(=O)NO)nn2-c2ccc(S(N)(=O)=O)cc2)cc1,0.083,0.208,0.52,71.1,0.294,0.333,26.4,> 100,25,> 20,> 100,> 100,–
